Like-named read-outs stand apart in the source and are kept apart here.
Experiments:
AGTR1 [1] = target: T1, AGTR1 (Homo sapiens, UniProt P30556); assay: DiscoveRx β-arrestin2 recruitment assay (enzyme complementation, Pathunter CHO-K1 AGTR1 β-arrestin cell line); assay type: cell-based; details: DiscoveRx β-arrestin2 recruitment; for DiscoveRx β-arrestin2 Ymax (%): maximal response
T1 construct: host or cells: Pathunter CHO-K1 AGTR1 β-arrestin cell line (CHO-K1)
T1 sequence (P30556 1-359): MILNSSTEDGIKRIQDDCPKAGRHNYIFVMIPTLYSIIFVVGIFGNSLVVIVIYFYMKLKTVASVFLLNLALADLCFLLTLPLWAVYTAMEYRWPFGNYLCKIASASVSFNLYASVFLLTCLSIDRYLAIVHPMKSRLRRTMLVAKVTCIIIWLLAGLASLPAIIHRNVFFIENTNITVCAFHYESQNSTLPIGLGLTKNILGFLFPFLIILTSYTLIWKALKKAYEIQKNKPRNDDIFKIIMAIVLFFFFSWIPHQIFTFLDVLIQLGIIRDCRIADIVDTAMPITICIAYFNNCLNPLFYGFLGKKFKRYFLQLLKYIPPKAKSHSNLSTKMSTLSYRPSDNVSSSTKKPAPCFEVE
Outline: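 Chemiluminescent enzyme-complementation read-out of β-arrestin2 recruitment to AGTR1 in engineered CHO-K1 cells after 90 min compound exposure at 37° C. Values are 4-parameter logistic EC50s in agonist mode, IC50s in antagonist mode, with efficacy relative to the maximal All response.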

hAT1R [2] = target: T2, hAT1R (Homo sapiens, UniProt P30556); assay: cell-based; details: agonist mode; for EC50: read-out: BRET P63 EC50
T2 sequence (P30556 1-359): T1 sequence (P30556 1-359)

AGTR1 [3] = target: T1, AGTR1; assay: DiscoveRx IP1 accumulation assay (HTRF), agonist mode, Pathunter CHO-K1 AGTR1 β-arrestin cell line; assay type: cell-based; details: for EC50: read-out: IP-1 EC50
Outline: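 Agonist mode in CHO-K1 AGTR1 β-arrestin cells plated 14-16 h before; compounds at varying concentrations for 90 min at 37° C, IP1 accumulation read by HTRF (D2-conjugate and anti-IP1 cryptate, 20 min room temperature). EC50 from 4-parameter logistic fit; activity given as percentage of maximal AII effect.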

hAT1R [4] = target: T2, hAT1R; assay: cell-based; details: section of the 42nd table ending at r951, example numbering restarts after the DiscoveRx section; read-out: β-arrestin2 EC50

Structure (SMILES) | EC50 (AGTR1 [1]) [nM] | DiscoveRx β-arrestin2 Ymax (%) (AGTR1 [1]) | BRET P63 Ymax (hAT1R [2]) [%] | EC50 (hAT1R [2]) [nM] | IP-1 Ymax (%) (AGTR1 [3]) | EC50 (AGTR1 [3]) [nM] | EC50 (hAT1R [4]) [nM]
CCc1nc2c(C)cc(C)nc2n1Cc1cnc(-c2cc(-c3ccccc3)ccc2-c2nnn[nH]2)cn1 [Example 187, 3-((5-(4-(1H-tetrazol-5-yl)-[1,1′-biphenyl]-3-yl)pyrazin-2-yl)methyl)-2-ethyl-5,7-dimethyl-3H-imidazo[4,5-b]pyridine] | 44.4 | 34.0 | 8.4 | 168 | 16.1 | 104 | 181
CCc1nc2c(C)cc(C)nc2n1Cc1ncc(-c2cc(-c3cccc(C)c3)ccc2-c2nnn[nH]2)cn1 [Example 188, 2-ethyl-5,7-dimethyl-3-((5-(3′-methyl-4-(1H-tetrazol-5-yl)biphenyl-3-yl)pyrimidin-2-yl)methyl)-3H-imidazo[4,5-b]pyridine] | 41.7 | 53.3 | 17.2 | 33.1 | 24.2 | 173 | 24.6
CCc1nc2c(C)cc(C)nc2n1Cc1ncc(-c2cc(-c3ccccc3O)ccc2-c2nnn[nH]2)cn1 [Example 189] | 9.2 | 53.0 | 17.5 | 32.1 | 12.7 | 18.4 | 49.2
CCc1nc2c(C)cc(C)nc2n1Cc1ccc(-c2cc(-c3cccc(C)c3)ccc2-c2nnn[nH]2)nn1 [Example 191, 2-ethyl-5,7-dimethyl-3-((6-(3′-methyl-4-(1H-tetrazol-5-yl)biphenyl-3-yl)pyridazin-3-yl)methyl)-3H-imidazo[4,5-b]pyridine] | 20.7 | 53.0 | 24.2 | 101 | 29.9 | 118 | 76
CCc1nc2c(C)cc(C)nc2n1Cc1ccc(-c2cc(-c3ccccn3)ccc2C(=O)O)cc1 [Example 192, 4′-((2-ethyl-5,7-dimethyl-3H-imidazo[4,5-b]pyridin-3-yl)methyl)-5-(pyridin-2-yl)biphenyl-2-carboxylic acid] | 94.3 | 45.1 | – | > 100000 | 11.1 | 223 | 127
CCc1nc2c(C)cc(C)nc2n1Cc1ccc(-c2cc(-c3cc(C)ccn3)ccc2C(=O)O)cc1 [Example 193] | 52.2 | 60.7 | 29.3 | 160 | 25.0 | 132 | 133
CCc1nc2c(C)cc(C)nc2n1Cc1ccc(-c2cc(-c3cc(C)cc(C)n3)ccc2C(=O)O)cc1 [Example 194] | 63.2 | 36.6 | 16.2 | 278 | 14.5 | 214 | 295
CCc1nc2c(C)cc(C)nc2n1Cc1cnc(-c2cc(-c3cccc(C)c3)ccc2-c2nnn[nH]2)nc1 [Example 197, 2-ethyl-5,7-dimethyl-3-((2-(3′-methyl-4-(1H-tetrazol-5-yl)biphenyl-3-yl)pyrimidin-5-yl)methyl)-3H-imidazo[4,5-b]pyridine] | 282 | 20.2 | – | > 100000 | 5.7 | 493 | > 10000
CCc1nc2c(C)cc(C)nc2n1Cc1ccc(-c2cc(-n3ncc4ccccc43)ccc2-c2nnn[nH]2)cc1 [Example 215, 3-((5′-(1H-Indazol-1-yl)-2′-(1H-tetrazol-5-yl)-[1,1′-biphenyl]-4-yl)methyl)-2-ethyl-5,7-dimethyl-3H-imidazo[4,5-b]pyridine] | 5.1 | 46.1 | 22.7 | 4 | 17.3 | 17.6 | 4.1
CCc1nc2c(C)cc(C)nc2n1Cc1ccc(-c2cc(-n3cc4ccccc4n3)ccc2-c2nnn[nH]2)cc1 [Example 216, 3-((5′-(2H-Indazol-2-yl)-2′-(1H-tetrazol-5-yl)-[1,1′-biphenyl]-4-yl)methyl)-2-ethyl-5,7-dimethyl-3H-imidazo[4,5-b]pyridine] | 9.6 | 33.4 | 10.1 | 1.8 | 10.6 | 29.1 | 6.6
CCc1nc2c(C)cc(C)nc2n1Cc1ccc(-c2cc(-n3cc(C)cn3)ccc2-c2nnn[nH]2)cc1 [Example 217, 2-ethyl-5,7-dimethyl-3-((5′-(4-methyl-1H-pyrazol-1-yl)-2′-(1H-tetrazol-5-yl)-[1,1′-biphenyl]-4-yl)methyl)-3H-imidazo[4,5-b]pyridine] | 4.6 | 70.3 | 32.1 | 2.7 | 21.8 | 22.5 | 3
CCc1nc2c(C)cc(C)nc2n1Cc1ccc(-c2cc(-n3ccc(C)n3)ccc2-c2nnn[nH]2)cc1 [Example 218] | 45.9 | 21.5 | – | > 10000 | 4.6 | 33.3 | > 10000
CCc1nc2c(C)cc(C)nc2n1Cc1ccc(-c2cc(-n3cnc4ccccc43)ccc2-c2nnn[nH]2)cc1 [Example 222] | 56.9 | 42.7 | – | > 100000 | 4.9 | 187 | 98.5
CCc1cn(-c2ccc(-c3nnn[nH]3)c(-c3ccc(Cn4c(CC)nc5c(C)cc(C)nc54)cc3)c2)nn1 [Example 231] | 28.7 | 36.8 | 13.8 | 36.2 | 8.4 | 30.1 | 98.8
CCc1nc2c(C)cc(C)nc2n1Cc1ccc(-c2cc(-n3cc(C)nn3)ccc2-c2nnn[nH]2)cc1 [Example 232] | 16.9 | 41.5 | – | > 100000 | 7.5 | 60 | 101
CCc1nc2c(C)cc(C)nc2n1Cc1ccc(-c2cc(-n3nnc4ccccc43)ccc2-c2nnn[nH]2)cc1 [Example 233, 1-(4′-((2-Ethyl-5,7-dimethyl-3H-imidazo[4,5-b]pyridin-3-yl)methyl)-6-(1H-tetrazol-5-yl)-[1,1′-biphenyl]-3-yl)-1H-benzo[d][1,2,3]triazole] | 10.5 | 59.2 | 17.9 | 13.2 | 10.2 | 31.3 | 9.7
CCc1nc2c(C)cc(C)nc2n1Cc1ccc(-c2cc(-c3cn(CCF)nn3)ccc2-c2nnn[nH]2)cc1 [Example 239] | 5.4 | 59.1 | 44.3 | 16.7 | 34.2 | 30.7 | 9
CCc1nc2c(C)cc(C)nc2n1Cc1ccc(-c2cc(-c3cn(CC(C)C)nn3)ccc2-c2nnn[nH]2)cc1 [Example 240] | 48.6 | 42.0 | 9.5 | 60.1 | 14.1 | 122 | 345
CCCCn1cc(-c2ccc(-c3nnn[nH]3)c(-c3ccc(Cn4c(CC)nc5c(C)cc(C)nc54)cc3)c2)nn1 [Example 241] | 41.5 | 44.3 | 17.5 | 40.5 | 12.8 | 150 | 50.2
CCc1nc2c(C)cc(C)nc2n1Cc1ccc(-c2cc(-c3cn(C)nn3)ccc2-c2nnn[nH]2)cc1 [Example 243, 2-Ethyl-5,7-dimethyl-3-((5′-(1-methyl-1H-1,2,3-triazol-4-yl)-2′-(1H-tetrazol-5-yl)-[1,1′-biphenyl]-4-yl)methyl)-3H-imidazo[4,5-b]pyridine] | 22.4 | 37.7 | 15.2 | 42.1 | 14.7 | 52 | 71.5
CCc1nc2c(C)cc(C)nc2n1Cc1ccc(-c2cc(-c3ccccc3)ccc2C(=O)NS(C)(=O)=O)cc1 [Example 244] | 96.5 | 34.7 | 15.3 | 69.6 | 11.0 | 201 | 111

— patent US12037324B2, “Biarylmethyl heterocycles” (Université de Montréal, priority 2016, dated 2024)
